In assay [1] the target is T1, GPR158 (Homo sapiens, UniProt Q5T848).
T1 sequence (Q5T848 24-1215): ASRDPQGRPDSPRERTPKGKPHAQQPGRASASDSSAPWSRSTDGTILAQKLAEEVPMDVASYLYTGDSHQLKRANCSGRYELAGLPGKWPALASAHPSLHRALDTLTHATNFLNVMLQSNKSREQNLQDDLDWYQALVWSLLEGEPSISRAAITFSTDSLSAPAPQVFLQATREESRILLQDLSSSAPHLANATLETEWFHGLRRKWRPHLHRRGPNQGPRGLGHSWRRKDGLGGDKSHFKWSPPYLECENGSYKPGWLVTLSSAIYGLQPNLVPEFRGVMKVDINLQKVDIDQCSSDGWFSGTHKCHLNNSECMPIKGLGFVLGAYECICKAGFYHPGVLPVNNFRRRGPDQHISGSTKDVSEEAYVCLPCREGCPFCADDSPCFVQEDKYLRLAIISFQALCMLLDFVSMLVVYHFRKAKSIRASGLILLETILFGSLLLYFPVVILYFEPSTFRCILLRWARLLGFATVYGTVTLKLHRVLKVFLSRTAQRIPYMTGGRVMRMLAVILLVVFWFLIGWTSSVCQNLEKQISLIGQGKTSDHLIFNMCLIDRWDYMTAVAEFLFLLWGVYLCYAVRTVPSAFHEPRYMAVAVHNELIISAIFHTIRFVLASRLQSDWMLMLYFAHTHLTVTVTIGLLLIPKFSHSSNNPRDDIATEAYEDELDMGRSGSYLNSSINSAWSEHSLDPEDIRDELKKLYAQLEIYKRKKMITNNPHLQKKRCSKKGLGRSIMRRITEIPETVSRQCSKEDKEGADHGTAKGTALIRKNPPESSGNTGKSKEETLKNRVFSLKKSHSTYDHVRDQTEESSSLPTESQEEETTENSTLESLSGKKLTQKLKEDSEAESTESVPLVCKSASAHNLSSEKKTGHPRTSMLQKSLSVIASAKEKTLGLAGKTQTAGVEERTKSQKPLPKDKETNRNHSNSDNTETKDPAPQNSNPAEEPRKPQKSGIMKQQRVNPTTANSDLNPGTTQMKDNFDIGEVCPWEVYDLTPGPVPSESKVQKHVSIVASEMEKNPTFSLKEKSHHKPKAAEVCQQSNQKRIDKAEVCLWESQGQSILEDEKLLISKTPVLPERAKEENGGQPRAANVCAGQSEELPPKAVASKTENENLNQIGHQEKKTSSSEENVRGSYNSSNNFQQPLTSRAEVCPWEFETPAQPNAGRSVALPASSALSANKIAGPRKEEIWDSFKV
The assay can be described thus: BRET cAMP assay in HEK293 cells expressing GPR158. The format is cell-based. On the set-up: expressed in transfected cells; host or cells: HEK293FT. The protocol:
FIGS. 2A-2C. Taurine signals through GPR158 to regulate cAMP. A) Time course of taurine (100 μM) effect on cAMP concentration in HEK293 cells. Cells were transfected with indicated constructs and cAMP was measured by the BRET assay. B) Quantification of taurine effect on maximal amplitude of the cAMP response. Data shown represent mean±s.e.m. determined from 3-9 independent experiments performed in triplicate. ****p<0.001 (one-way ANOVA). Columns with no fill (Ctrl), columns with angled-line fill (Taurine) C) Comparison of glycine and taurine effects on GPR158-mediated changes in cAMP response. Glycine or taurine was applied to HEK293 cells expressing either GPR158 alone or with RGS7/Gβ5 and the CAMP change was subtracted from the background response in control cells not expressing GPR158. Data shown represent mean±s.e.m. determined from 3 independent experiments performed in triplicate. *p<0.05, ***p<0.01, ns=p>0.05 (one-way ANOVA) Columns with no fill (Ctrl), columns with short-line fill (Glycine), columns with angled-line fill (Taurine).
HEK293FT cells were seeded in a white flat-bottom 96 well plate (Greiner Bio-One) at 50,000 cells per well and transiently transfected using Metafectene Pro with the manufacturer instruction. 24 h after transfection in DMEM complete medium supplemented of 0.1% of Matrigel (Corning), cells were washed with BRET buffer (Dulbecco's Phosphate-Buffered Saline (PBS) containing 0.5 mM MgCl2 and 0.1% glucose). The RLuc (Renilla luciferase) substrate, coelenterazine H (Research Products International Corp, IL), were diluted at 5 μM in BRET buffer and added to cells. BRET measurements were made in living cells using a microplate reader (PHERAstar FSX; BMG Labtech) equipped with two emission photomultiplier tubes. All measurements were performed at 37 °C.
HEK293FT cells or U87 MG cells (ATCC HTB-14) when indicated were co-transfected with the CAMP sensor Camyel and with untagged receptors (respectively: empty vector, GPR158). BRET ratio was determined by calculating the ratio of the light emitted by RLuc (475 nm with a 30 nm band path width) over the light emitted by the Venus (535 nm with a 30 nm band path width) in order to measure an increase of the signal when cAMP increase. ΔBRET was calculated by subtracting the ctrl cell BRET result from GPR158 expressing cells BRET result in order to get specifically the signal from GPR158 removing all the non-specific signal. Finally, netBRET was calculated by subtraction of the baseline value (basal BRET ratio) recorded prior to glycine stimulation from the experimental BRET signal values and the resulting difference (netBRET ratio).
On the technique in general: BRET reads energy transfer from a luciferase to a nearby fluorophore.

Assay [2] addresses T1, GPR158. The assay can be described thus: BRET β-arrestin recruitment assay. Conditions: yPET-β-arrestin-2, HEK293 cells. The format is cell-based. On the set-up: expressed in transfected cells; host or cells: HEK293 (HEK293FT in the BRET methods). The text has this:
FIGS. 6A-6B. Effect of glycine on GPR158 coupling to β-arrestin. A) Schematic of the BRET based β-arrestin recruitment assay B) Dose response profile evaluating recruitment of β-arrestin using BRET-based recruitment assay that measures association of yPET-β-arrestin-2 with Rluc8-tagged receptor: GPR158 or kOR used as a positive control. Constructs were co-transfected into HEK293 cells stimulated with increasing concentration of U50488 or glycine. Data shown fold over basal of 4 independent experiments performed in triplicate mean±s.e.m.
The inventors further tested whether glycine or taurine could induce GPR158 to activate G proteins as canonical GPCRs do. In these experiments, the inventors used a reverse strategy where the inventors monitored generation of the BRET signal in the same assay (FIG. 5A).
Cells were co-transfected with Rluc-tagged receptors and YPet-β-arrestin2. Coelenterazine H were diluted at 5 μM in BRET buffer and added to cells with glycine or U50488 as indicated. BRET ratio was determined by calculating the ratio of the light emitted by the Venus (535 nm with a 30 nm band path width) over the light emitted by RLuc (475 nm with a 30 nm band path width) in order to measure an increase of the signal when β-arrestin is recruited. BRET ratio was calculated and fold over basal response was plotted as a function of kOR condition.

These results are taken from patent US20260376293A1, “METHODS FOR STUDYING GPR158 PHARMACOLOGY AND IDENTIFICATION OF ITS LIGANDS” (UNIVERSITY OF FLORIDA RESEARCH FOUNDATION, INCORPORATED, priority 2022, published 2026).

In the case of `NCCS(=O)(=O)O` [taurine, 2-aminoethanesulfonic acid], in assay [1], the “type of agonism on GPR158” value was “partial agonist”. Moreover, the cAMP change result in assay [1] (HEK293 cells expressing GPR158, taurine 100 μM) was “significant decrease in cAMP levels”. Besides, the “cAMP change in parental cells” value in assay [1] (HEK293 cells without GPR158, taurine 100 μM) is given as “did not produce a response”. The “cAMP change with co-expressed RGS7/Gβ5” value in assay [1] (HEK293 cells, GPR158 + RGS7/Gβ5, taurine 100 μM) was “potentiated by co-expressing RGS7/Gβ5”. The “GPR158-mediated suppression of cAMP compared with glycine” value in assay [1] (HEK293 cells, direct comparison) was “weaker than the effect of glycine”.
`NCC(=O)O` [glycine]: the “β-arrestin recruitment to GPR158” value in assay [2] is “no significant response”.
